Where two headings read alike, the source gives them in different places.
What was measured:
[1] = system: beet armyworm (Spodoptera exigua [Hubner]); experiment: Foliar spray test on chick pea plants, beet armyworm, 96 hour exposure; type: in vivo; conditions: rate of application 100 ppm, dead plus moribund insects, * = average of more than one test
Procedure: (§1) Candidate insecticides with high pl50 values from the diet test were tested for insecticidal activity in foliar evaluations against tobacco budworm, beet armyworm (Spodoptera exigua [Hubner]), and cabbage looper (Trichoplusia ni [Hubner])
(§2) In these tests against tobacco budworm and beet armyworm, nine-day-old chick pea plants (Cicer arietinum) were sprayed at 20 psi to runoff on both upper and lower leaf surfaces with solutions of test chemical to provide application rates as high as 1000 ppm of test chemical. The solvent used to prepare the solutions of test chemical was 10% acetone or methanol (v/v) and 0.1% of the surfactant octylphenoxypolyethoxyethanol in distilled water. Four replicates, each containing one chick pea plant, for each rate of application of test chemical were sprayed. The treated plants were transferred to a hood, where they were kept until the spray had dried.
(§3) The four chick pea plants for each replicate treated with test chemical as described above were removed from their pots by cutting the stems just above the soil line. The excised leaves and stems from the four plants in each replicate were placed in individual 8-ounce paper cups, each containing a moistened filter paper. Five second-instar (6 days old) tobacco budworms or beet armyworms (7-8 days old) were counted into each cup, taking care not to cause injury. An opaque plastic lid was placed on each cup, which was then held in a growth chamber for a 96 hour exposure period at 25°C and 50% relative humidity. At the end of the 96 hour exposure period the cups were opened, and the numbers of dead, moribund, and live insects were counted. Using the insect counts, the efficacy of the test chemical was expressed in percent control. Percent control is derived from the total number of dead insects (TD) plus the total number of moribund insects (TM) as compared to the total number of insects (TI) in the test: % Control =(TD+TM)/(TI)x 100 [formula]
(§4) The condition of the test plants was also observed for phytotoxicity and for reduction of feeding damage as compared to an untreated control.

[2] = system: tobacco budworm (Heliothis virescens [Fabricius]); experiment: Diet test: test chemical incorporated into artificial diet of tobacco budworm larvae, 5-day exposure; type: in vivo; conditions: for IC50 / LC50 / mortality at 100 µM / pest or weed control at 100 µM: Heliothis virescens, 120 h; for LC50: read-out: pLC50 (converted); for mortality at 100 µM / pest or weed control at 100 µM: feed or water; for mortality at 100 µM: read-out: Percent Mortality; for pest or weed control at 100 µM / Percent Growth Inhibition: rate of application 4 (negative log of molar concentration in the diet), second instar larvae, 25°C; for pest or weed control at 100 µM: read-out: Percent Growth Inhibition
Procedure: Candidate insecticides were incorporated into an artificial diet for evaluation of insecticidal activity against the tobacco budworm (Heliothis virescens [Fabricius]) in the following manner. Stock solutions of test chemical in dimethyl sulfoxide, ranging from […], were prepared for each rate of application. One hundred microliters of each of the stock solutions was manually stirred into 50 mL of a molten (65-70°C) wheat germ-based artificial diet. The 50 mL of molten diet containing the test chemical was poured evenly into twenty wells in the outer two rows on each side of a twenty-five well, five row plastic tray. (Each well in the tray was about 1 cm in depth, with an opening of 3 cm by 4 cm at the lip.) Molten diet containing only dimethyl sulfoxide at the levels used in the test chemical-treated diet was poured into the five wells in the third (center) row of the tray. Each tray therefore contained one test chemical at a single rate of application, together with an untreated control. The rates of application, expressed as the negative log of the molar concentration, and the corresponding concentrations of the stock solution prepared for each rate are shown below:
Single second instar tobacco budworm larvae, selected at a stage of growth at which they uniformly weigh about 5 mg each, were placed in each well. Upon completion of infestation, a sheet of clear plastic was heat-sealed over the top of the tray by use of a common household flat.iron. The trays were held at 25°C at 60% relative humidity for five days in a growth chamber. Lighting was set at 14 hours of light and 10 hours of darkness. After the 5-day exposure period, mortality counts were taken, and the surviving insects were weighed. From the weights of the surviving insects that fed on the treated diet as compared to those insects that fed on the untreated diet, the percent growth inhibition caused by each test chemical was determined. […] Also, where possible, the negative log of the concentration of the test chemical that provided 50% mortality (pLC50) was determined.

[3] = system: tobacco budworm (Heliothis veriscens [Fabricius]); experiment: Foliar spray test on chick pea plants, tobacco budworm, 96 hour exposure; type: in vivo, Heliothis virescens; conditions: rate of application 100 ppm, dead plus moribund insects, * = average of more than one test
Procedure: as §1, §2, §3, §4

[4] = system: cabbage looper (Trichoplusia ni [Hubner]); experiment: Foliar spray test on pinto bean plants, cabbage looper, 96 hour exposure; type: in vivo; conditions: rate of application 100 ppm, dead plus moribund insects, * = average of more than one test
Procedure: as §1, §2, §3, §4
Foliar tests with cabbage looper were conducted in the same manner as described above, the difference being that pinto bean plants (Phaseolus vulgaris) were used in place of chick pea plants.

[5] = negative log of the concentration that provides 50% growth inhibition, by linear regression, 5 days, * = average of more than one test, read-out: pl50 (converted)
[6] = negative log of the concentration that provides 50% mortality, 5 days, * = average of more than one test
[7] = 5 days, * = average of more than one test
[8] = negative log of the concentration that provides 50% growth inhibition, by linear regression, 5 days, * = average of more than one test

Row | Structure (SMILES) | Percent Control BAW [1] | IC50 [2, 5] [nM] | LC50 [2, 6] [nM] | mortality at 100 µM [2] [%] | pest or weed control at 100 µM [2, 7] [%] | Percent Control TBW [3] | Percent Control CL [4] | Percent Growth Inhibition [2, 7] [%] | LC50 [2] [nM] | IC50 ([2]; read-out: pl50) [nM] | pl50 [2, 8]
1 | COc1ccc(CN2CCC(C(O)(c3ccc(OC(F)(F)F)cc3)c3ccc(OC(F)(F)F)cc3)CC2)cc1 [Compound 1, N-(4-methoxyphenylmethyl)-4-[bis(4-trifluoromethoxyphenyl)hydroxymethyl]piperidine] | 55% | 794 | 25100 | 100 | 100 | 80% | 100% | – | – | – | –
2 | CCn1nnc(-c2ccc(C[N+]3([O-])CCC(C(O)(c4ccc(C(F)(F)F)cc4)c4ccc(C(F)(F)F)cc4)CC3)cc2)n1 (centres unmarked) [Compound 34] | 100% | ≤ 316 | 1260 | 100 | – | 100% | 100% | 100 | – | – | –
3 | CCCOc1ccc(CN2CCC(C(O)(c3ccc(C(F)(F)F)cc3)c3ccc(C(F)(F)F)cc3)CC2)cc1 [Compound 102] | 100* % | – | – | 100 | – | 98* % | 100* % | 100 | 3160 | < 1000 | –
4 | Cn1nnc(-c2ccc(CN3CCC(C(O)(c4ccc(C(F)(F)F)cc4)c4ccc(C(F)(F)F)cc4)CC3)cc2)n1 [Compound 31, N-[4-(2-methyl-2H-tetrazol-5-yl)phenylmethyl]-4-[bis(4-trifluoromethylphenyl)hydroxymethyl]piperidine] | 100* % | ≤ 316 | 2510 | 100 | 100 | 100% | 100% | – | – | – | –
5 | Cn1nnc(-c2ccc(CN3CCC(C(O)(c4ccc(OC(F)(F)F)cc4)c4ccc(OC(F)(F)F)cc4)CC3)cc2)n1 [Compound 9, N-[4-(2-methyl-2H-tetrazol-5-yl)phenylmethyl]-4-[bis(4-trifluoromethoxyphenyl)hydroxymethyl]piperidine] | 100% | ≤ 316 | 2510 | 100 | 100 | 100% | 100% | – | – | – | 6.6
6 | Cn1nnc(-c2ccc(C[N+]3([O-])CCC(C(O)(c4ccc(C(F)(F)F)cc4)c4ccc(C(F)(F)F)cc4)CC3)cc2)n1 (centres unmarked) [Compound 32, N-[4-(2-methyl-2H-tetrazol-5-yl)phenylmethyl]-4-[bis(4-trifluoromethylphenyl)hydroxymethyl]piperidine N-oxide] | 100* % | ≤ 316 | 2510 | 100 | 100 | 100% | 100% | – | – | – | –
7 | CCn1nnc(-c2ccc(CN3CCC(C(O)(c4ccc(C(F)(F)F)cc4)c4ccc(C(F)(F)F)cc4)CC3)cc2)n1 [Compound 33] | 100% | ≤ 316 | 794 | 100 | – | 100% | 95% | 99 | – | – | 6.6
8 | OC(c1ccc(C(F)(F)F)cc1)(c1ccc(C(F)(F)F)cc1)C1CCN(Cc2ccc(Oc3ccccn3)cc2)CC1 [Compound 53] | – | – | – | 100 | – | – | – | – | – | – | –
9 | Cn1nnc(-c2ccc(C[N+]3([O-])CCC(C(O)(c4ccc(OC(F)(F)F)cc4)c4ccc(OC(F)(F)F)cc4)CC3)cc2)n1 (centres unmarked) [Compound 15] | – | – | – | 100 | – | – | – | – | – | – | –

— patent publication EP0844825B1, “INSECTICIDAL N-(SUBSTITUTED ARYLMETHYL)-4- BIS(SUBSTITUTED PHENYL OR PYRIDYL)METHYL]PIPERIDINES” (FMC CORPORATION, priority 1995, dated 1996)
